Patent publication US20250122218A1, “MODULATORS OF CYSTIC FIBROSIS TRANSMEMBRANE CONDUCTANCE REGULATOR” (Vertex Pharmaceuticals Incorporated, priority 2022, published 2025)

What follows are molecules tested against T1, CFTR in F508del/MF-HBE cells (Homo sapiens, UniProt P13569, DEL508-508) (assay: Ussing chamber assay of CFTR-mediated short-circuit currents (identification of potentiator compounds)). Conditions: potentiator incubated 18-24 hours at 37° C. in combination with 10 μM corrector, in the presence of 20% human serum, CFTR-mediated ISC.
T1 construct: human bronchial epithelial (HBE) cells derived from CF subjects heterozygous for F508del and a minimal function CFTR mutation; endogenous in cells; host or cells: primary human bronchial epithelial cells from CF subjects (F508del/MF-HBE)
T1 sequence (P13569 with tags, fused parts or gaps DEL508-508): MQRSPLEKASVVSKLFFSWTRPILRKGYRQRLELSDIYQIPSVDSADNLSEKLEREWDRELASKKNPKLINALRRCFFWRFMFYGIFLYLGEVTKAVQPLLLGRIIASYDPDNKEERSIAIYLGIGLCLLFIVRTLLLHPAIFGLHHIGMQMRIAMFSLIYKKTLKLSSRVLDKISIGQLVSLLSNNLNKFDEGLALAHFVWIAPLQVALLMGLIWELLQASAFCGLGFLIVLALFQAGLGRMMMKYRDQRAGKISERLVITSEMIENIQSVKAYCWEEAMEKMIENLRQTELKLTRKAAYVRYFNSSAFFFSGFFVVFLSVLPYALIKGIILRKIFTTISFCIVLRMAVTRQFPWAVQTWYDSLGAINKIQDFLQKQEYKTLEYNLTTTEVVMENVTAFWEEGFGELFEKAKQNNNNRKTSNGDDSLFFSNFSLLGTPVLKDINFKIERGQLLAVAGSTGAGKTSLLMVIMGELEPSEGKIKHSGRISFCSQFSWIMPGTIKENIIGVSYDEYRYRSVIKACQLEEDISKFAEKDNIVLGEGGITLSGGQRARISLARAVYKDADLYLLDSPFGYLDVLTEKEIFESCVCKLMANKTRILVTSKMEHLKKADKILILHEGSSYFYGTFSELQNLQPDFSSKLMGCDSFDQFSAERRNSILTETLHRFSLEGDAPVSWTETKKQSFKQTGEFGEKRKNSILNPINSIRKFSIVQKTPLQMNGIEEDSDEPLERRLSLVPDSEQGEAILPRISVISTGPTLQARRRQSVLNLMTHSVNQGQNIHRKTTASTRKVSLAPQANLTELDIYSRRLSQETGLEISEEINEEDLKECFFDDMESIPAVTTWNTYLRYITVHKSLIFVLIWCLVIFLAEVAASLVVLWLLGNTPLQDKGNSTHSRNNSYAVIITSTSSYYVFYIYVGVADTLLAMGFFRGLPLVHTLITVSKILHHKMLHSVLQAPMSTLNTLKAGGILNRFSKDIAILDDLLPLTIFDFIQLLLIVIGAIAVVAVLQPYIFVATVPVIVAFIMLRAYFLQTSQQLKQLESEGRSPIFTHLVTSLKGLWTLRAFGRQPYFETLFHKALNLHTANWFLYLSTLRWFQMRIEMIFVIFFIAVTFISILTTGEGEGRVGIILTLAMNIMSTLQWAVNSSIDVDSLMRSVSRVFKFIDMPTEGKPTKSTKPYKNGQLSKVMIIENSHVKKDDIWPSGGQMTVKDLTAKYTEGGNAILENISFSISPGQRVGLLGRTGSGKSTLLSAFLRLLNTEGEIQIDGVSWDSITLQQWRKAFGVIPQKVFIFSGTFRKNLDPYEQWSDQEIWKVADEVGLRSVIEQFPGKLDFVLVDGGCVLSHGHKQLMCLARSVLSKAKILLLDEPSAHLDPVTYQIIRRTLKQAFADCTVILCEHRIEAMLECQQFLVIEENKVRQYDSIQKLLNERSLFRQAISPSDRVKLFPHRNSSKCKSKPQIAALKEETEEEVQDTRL
Format: cell-based
How it was run: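 F508del/MF-HBE cultures were preincubated 18-24 h at 37° C with potentiator plus 10 μM of a fixed corrector compound in 20% human serum; compounds were kept present during measurement. ISC was recorded under voltage clamp (0 mV, 37° C, amiloride apical) and taken as the 20 μM forskolin peak minus the current after inhibitor cocktail.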

Compound | EC50
CC(C)(C)[C@H]1CC[C@H](N2CCCCC[C@](O)(C(F)(F)F)C3=NN=C(O3)c3nc(c(C(F)(F)F)cc3N)C2=O)CC1 [Compound 97, (6R)-17-Amino-12-(trans-4-tert-butylcyclohexyl)-6-hydroxy-6,15-bis (trifluoromethyl)-19-oxa-3,4,12,18-tetrazatricyclo [12.3.1.12,5] nonadeca-1(18),2,4,14,1 6-pentaen-13-one] | < 500 nM
Nc1cc(C(F)(F)F)c2nc1-c1nnc(o1)[C@@](O)(C(F)(F)F)CCCCCN(C1CCOCC1)C2=O [Compound 98, (6R)-17-Amino-6-hydroxy-12-tetrahydropyran-4-yl-6,15-bis (trifluoromethyl)-19-oxa-3,4,12,18-tetrazatricyclo [12.3.1.12,5] nonadeca-1(18),2,4,14,1 6-pentaen-13-one] | < 500 nM
Nc1cc(C(F)(F)F)c2nc1-c1nnc(o1)[C@@](O)(C(F)(F)F)CCCCCN(C1CC3(CNC3)C1)C2=O [Compound 99, (6R)-17-Amino-12-(2-azaspiro[3.3]heptan-6-yl)-6-hydroxy-6,15-bis (trifluoromethyl)-19-oxa-3,4,12,18-tetrazatricyclo [12.3.1.12,5] nonadeca-1(18),2,4,14,1 6-pentaen-13-one] | > 1000 nM
Nc1cc(C(F)(F)F)c2nc1-c1nnc(o1)[C@@](O)(C(F)(F)F)CCCCCN(C1CCCC1)C2=O [Compound 100, (6R)-17-Amino-12-cyclopentyl-6-hydroxy-6,15-bis (trifluoromethyl)-19-oxa-3,4,12,18-tetrazatricyclo [12.3.1.12,5] nonadeca-1(18),2,4,14,1 6-pentaen-13-one] | < 500 nM
Nc1cc(C(F)(F)F)c2nc1-c1nnc(o1)[C@@](O)(C(F)(F)F)CCCCCN(Cc1ccc3c(c1)OC(F)(F)O3)C2=O [Compound 101, (6R)-Amino-12-[(2,2-difluoro-1,3-benzodioxol-5-yl)methyl]-6-hydroxy-6,15-bis (trifluoromethyl)-19-oxa-3,4,12,18-tetrazatricyclo [12.3.1.12,5] nonadeca-1(18),2,4,14,1 6-pentaen-13-one] | < 500 nM
Nc1cc(C(F)(F)F)c2nc1-c1nnc(o1)[C@@](O)(C(F)(F)F)CCCCCN(C1CCS(=O)(=O)CC1)C2=O [Compound 102, (6R)-17-Amino-12-(1,1-dioxothian-4-yl)-6-hydroxy-6,15-bis (trifluoromethyl)-19-oxa-3,4,12,18-tetrazatricyclo [12.3.1.12,5] nonadeca-1(18),2,4,14,1 6-pentaen-13-one] | > 1000 nM
Nc1cc(C(F)(F)F)c2nc1-c1nnc(o1)[C@@](O)(C(F)(F)F)CCCCCN(C1CS(=O)(=O)C1)C2=O [Compound 103, (6R)-17-Amino-12-(1,1-dioxothietan-3-yl)-6-hydroxy-6,15-bis (trifluoromethyl)-19-oxa-3,4,12,18-tetrazatricyclo [12.3.1.12,5] nonadeca-1(18),2,4,14,1 6-pentaen-13-one] | > 1000 nM
C[C@@H](c1ccc(F)cc1)N1CCCCC[C@](O)(C(F)(F)F)C2=NN=C(O2)c2nc(c(C(F)(F)F)cc2N)C1=O [Compound 104, (6R)-17-Amino-12-[(1S)-1-(4-fluorophenyl)ethyl]-6-hydroxy-6,15-bis (trifluoromethyl)-19-oxa-3,4,12,18-tetrazatricyclo [12.3.1.12,5] nonadeca-1(18),2,4,14,1 6-pentaen-13-one] | < 500 nM
C[C@H](c1ccc(F)cc1)N1CCCCC[C@](O)(C(F)(F)F)C2=NN=C(O2)c2nc(c(C(F)(F)F)cc2N)C1=O [Compound 105, (6R)-17-Amino-12-[(1R)-1-(4-fluorophenyl)ethyl]-6-hydroxy-6,15-bis (trifluoromethyl)-19-oxa-3,4,12,18-tetrazatricyclo [12.3.1.12,5] nonadeca-1(18),2,4,14,1 6-pentaen-13-one] | < 500 nM
Nc1cc(C(F)(F)F)c2nc1-c1nnc(o1)[C@@](O)(C(F)(F)F)CCCCCN(Cc1ccc(OC(F)(F)F)cc1)C2=O [Compound 106, (6R)-17-Amino-6-hydroxy-12-[[4-(trifluoromethoxy)phenyl]methyl]-6,15-bis (trifluorom 19-oxa-ethyl)-3,4,12,18-tetrazatricyclo [12.3.1.12,5] nonadeca-1(18),2,4,14,1 6-pentaen-13-one] | < 500 nM
Nc1cc(C(F)(F)F)c2nc1-c1nnc(o1)[C@@](O)(C(F)(F)F)CCCCCN(c1ccccn1)C2=O [Compound 107, (6R)-17-Amino-6-hydroxy-12-(2-pyridyl)-6,15-bis (trifluoromethyl)-19-oxa-3,4,12,18-tetrazatricyclo [12.3.1.12,5] nonadeca-1(18),2,4,14,1 6-pentaen-13-one] | < 500 nM
Nc1cc(C(F)(F)F)c2nc1-c1nnc(o1)[C@@](O)(C(F)(F)F)CCCCCN(c1ccccc1)C2=O [Compound 108, (6R)-17-Amino-6-hydroxy-12-phenyl-6,15-bis (trifluorom 19-oxa-ethyl)-3,4,12,18-tetrazatricyclo [12.3.1.12,5] nonadeca-1(18),2,4,14,1 6-pentaen-13-one] | < 500 nM
Cn1cc(N2CCCCC[C@](O)(C(F)(F)F)C3=NN=C(O3)c3nc(c(C(F)(F)F)cc3N)C2=O)cn1 [Compound 109, (6R)-17-Amino-6-hydroxy-12-(1-methylpyrazol-4-yl)-6,15-bis (trifluoromethyl)-19-oxa-3,4,12,18-tetrazatricyclo [12.3.1.12,5] nonadeca-1(18),2,4,14,1 6-pentaen-13-one] | < 500 nM
Nc1cc(C(F)(F)F)c2nc1-c1nnc(o1)[C@@](O)(C(F)(F)F)CCCCCN(Cc1cccc3ccccc13)C2=O [Compound 110, (6R)-17-Amino-6-hydroxy-12-(1-naphthylmethyl)-6,15-bis (trifluoromethyl)-19-oxa-3,4,12,18-tetrazatricyclo [12.3.1.12,5] nonadeca-1(18),2,4,14,1 6-pentaen-13-one] | < 500 nM
Nc1cc(C(F)(F)F)c2nc1-c1nnc(o1)[C@@](O)(C(F)(F)F)CCCCCN(Cc1ccc3ccccc3c1)C2=O [Compound 111, (6R)-17-Amino-6-hydroxy-12-(2-naphthylmethyl)-6,15-bis (trifluoromethyl)-19-oxa-3,4,12,18-tetrazatricyclo [12.3.1.12,5] nonadeca-1(18),2,4,14,1 6-pentaen-13-one] | < 500 nM
Nc1cc(C(F)(F)F)c2nc1-c1nnc(o1)[C@@](O)(C(F)(F)F)CCCCCN(Cc1cc[nH]n1)C2=O [Compound 112, (6R)-17-Amino-6-hydroxy-12-(1H-pyrazol-3-ylmethyl)-6,15-bis (trifluoromethyl)-19-oxa-3,4,12,18-tetrazatricyclo [12.3.1.12,5] nonadeca-1(18),2,4,14,1 6-pentaen-13-one] | > 1000 nM

The remaining lines, values ahead:

EC50 | Compound
> 1000 nM | Nc1cc(C(F)(F)F)c2nc1-c1nnc(o1)[C@@](O)(C(F)(F)F)CCCCCN(Cc1cn[nH]c1)C2=O [Compound 113, (6R)-17-Amino-6-hydroxy-12-(1H-pyrazol-4-ylmethyl)-6,15-bis (trifluoromethyl)-19-oxa-3,4,12,18-tetrazatricyclo [12.3.1.12,5] nonadeca-1(18),2,4,14,1 6-pentaen-13-one]
< 500 nM | CC(C)(C)c1ccc(CN2CCCCC[C@](O)(C(F)(F)F)C3=NN=C(O3)c3nc(c(C(F)(F)F)cc3N)C2=O)cc1 [Compound 116, (6R)-17-Amino-12-[(4-tert-butylphenyl)methyl]-6-hydroxy-6,15-bis (trifluoromethyl)-19-oxa-3,4,12,18-tetrazatricyclo [12.3.1.12,5] nonadeca-1(18),2,4,14,1 6-pentaen-13-one]
> 1000 nM | Cn1ccc(CN2CCCCC[C@](O)(C(F)(F)F)C3=NN=C(O3)c3nc(c(C(F)(F)F)cc3N)C2=O)n1 [Compound 117, (6R)-17-Amino-6-hydroxy-12-[(1-methylpyrazol-3-yl)methyl]-6,15-bis (trifluorom ethyl)-19-oxa-3,4,12,18-tetrazatricyclo [12.3.1.12,5] nonadeca-1(18),2,4,14,1 6-pentaen-13-one]
> 1000 nM | Cn1cc(CN2CCCCC[C@](O)(C(F)(F)F)C3=NN=C(O3)c3nc(c(C(F)(F)F)cc3N)C2=O)cn1 [Compound 118, (6R)-17-Amino-6-hydroxy-12-[(1-methylpyrazol-4-yl)methyl]-6,15-bis (trifluoromethyl)-19-oxa-3,4,12,18-tetrazatricyclo [12.3.1.12,5] nonadeca-1(18),2,4,14,1 6-pentaen-13-one]
< 500 nM | CC(C)(C)c1ccc(CN2CCCCC[C@](O)(C(F)(F)F)C3=NN=C(O3)c3nc(c(C(F)(F)F)cc3N)C2=O)cn1 [Compound 119, (6R)-17-Amino-12-[(6-tert-butyl-3-pyridyl)methyl]-6-hydroxy-6,15-bis (trifluoromethyl)-19-oxa-3,4,12,18-tetrazatricyclo [12.3.1.12,5] nonadeca-1(18),2,4,14,1 6-pentaen-13-one]
< 500 nM | CC(C)(C)c1ccc(CN2CCCCC[C@](O)(C(F)(F)F)C3=NN=C(O3)c3nc(c(C(F)(F)F)cc3N)C2=O)nc1 [Compound 120, (6R)-17-Amino-12-[(5-tert-butyl-2-pyridyl)methyl]-6-hydroxy-6,15-bis (trifluoromethyl)-19-oxa-3,4,12,18-tetrazatricyclo [12.3.1.12,5] nonadeca-1(18),2,4,14,1 6-pentaen-13-one]
< 500 nM | Nc1cc(C(F)(F)F)c2nc1-c1nnc(o1)[C@@](O)(C(F)(F)F)CCCCCN(C13CC(F)(C1)C3)C2=O [Compound 121, (6R)-17-Amino-12-(3-fluoro-1-bicyclo[1.1.1]pentanyl)-6-hydroxy-6,15-bis (trifluorom ethyl)-19-oxa-3,4,12,18-tetrazatricyclo [12.3.1.12,5] nonadeca-1(18),2,4,14,1 6-pentaen-13-one]
